Data from the NIST ThermoML archive (doi:10.1016/j.tca.2014.04.026).

Assay: molar heat capacity at constant pressure; wn = mass fraction of the nth substance listed
Conditions: 101 kPa, Liquid, Small sample (50 mg) DSC

CCn1cc[n+](C)c1.N#C[C-](C#N)C#N [1-ethyl-3-methyl-1H-imidazolium tricyanomethanide] + CCn1cc[n+](C)c1.N#CN=C=[N-]
molar heat capacity at constant pressure [J/K/mol]
Conditions | w2 = 0 | w2 = 0.25 | w2 = 0.5 | w2 = 0.75
296.2 K | 357 | 354 | 344 | 335
300.2 K | 360 | 355 | 346 | 338
304.2 K | 362 | 356 | 347 | 339
308.2 K | 364 | 357 | 348 | 340
312.2 K | 366 | 358 | 350 | 342
316.2 K | 367 | 359 | 352 | 343
320.2 K | 369 | 360 | 352 | 344
324.2 K | 370 | 361 | 354 | 345
328.2 K | 372 | 363 | 356 | 347
332.2 K | 374 | 365 | 358 | 349
336.2 K | 377 | 367 | 360 | 352
340.2 K | 379 | 370 | 362 | 354
344.2 K | 382 | 372 | 365 | 356
348.2 K | 384 | 374 | 367 | 359
352.2 K | 387 | 377 | 370 | 362
356.2 K | 390 | 381 | 373 | 365
360.2 K | 393 | 383 | 376 | 368
364.2 K | 396 | 385 | 380 | 371
368.2 K | 399 | 388 | 383 | 374
372.2 K | 403 | 391 | 387 | 378
